Key:
[1] = molecular target: Menin/MLL (terbium chelate-labeled menin, FITC-MBM1 peptide) (Homo sapiens (Human), UniProt O00255); assay: Menin/MLL homogenous time-resolved fluorescence (HTRF) assay; assay type: binding; conditions: 30 min incubation of compound with labeled menin
Procedure: To an untreated, white 384-well microtiter plate was added 40 nL 200× test compound in DMSO and 4 μL 2× terbium chelate-labeled menin (vide infra for preparation) in assay buffer (40 mM Tris·HCl, pH 7.5, 50 mM NaCl, 1 mM DTT (dithiothreitol) and 0.05% Pluronic F-127). After incubation of test compound and terbium chelate-labeled menin for 30 min at ambient temperature, 4 μL 2×FITC-MBM1 peptide (FITC-β-alanine-[…]-NH2) (“FITC” means fluorescein isothiocyanate) in assay buffer was added, the microtiter plate centrifuged at 1000 rpm for 1 min and the assay mixtures incubated for 15 min at ambient temperature. The relative amount of menin-FITC-MBM1 complex present in an assay mixture is determined by measuring the homogenous time-resolved fluorescence (HTRF) of the terbium/FITC donor/acceptor fluorphore pair using an EnVision microplate reader (ex. 337 nm/terbium em. 490 nm/FITC em. 520 nm) at ambient temperature. The degree of fluorescence resonance energy transfer (the HTRF value) is expressed as the ratio of the fluorescence emission intensities of the FITC and terbium fluorophores (F^em 520 nm/F^em 490 nm). […]
Compound potencies were determined by first calculating % inhibition at each compound concentration according to equation 1: […]

MEIS1 mRNA expression = MEIS1 mRNA expression assay (Quantigene Singleplex) in MOLM14 cells; assay type: cell-based, human; conditions: 48 hours incubation
Procedure: MEIS1 mRNA expression upon treatment of compound was examined by Quantigene Singleplex assay (Thermo Fisher Scientific). This technology allows for direct quantification of mRNA targets using probes hybridizing to defined target sequences of interest and the signal is detected using a Multimode plate reader Envision (PerkinElmer). The MOLM14 cell line was used for this experiment. Cells were plated in 96-well plates at 3,750 cells/well in the presence of increasing concentrations of compounds. After incubation of 48 hours with compounds, cells were lysed in lysis buffer and incubated for 45 minutes at 55° C. Cell lysates were mixed with human MEIS1 specific capture probe or human RPL28 (Ribosomal Protein L28) specific probe as a normalization control, as well as blocking probes. Cell lysates were then transferred to the custom assay hybridization plate (Thermo Fisher Scientific) and incubated for 18 to 22 hours at 55° C. Subsequently, plates were washed to remove unbound materials followed by sequential addition of preamplifiers, amplifiers, and label probe. Signals (=gene counts) were measured with a Multimode plate reader Envision. IC50s were calculated by dose-response modelling using appropriate software. […] Fold changes were calculated by dividing the normalized values for the treated samples by the normalized values for the DMSO treated sample. […]

MOLM14 cells = assay: Proliferation assay (spheroid assay) MOLM14; assay type: cell-based, human; conditions: 8 days, MLL-AF9 cell line; read-out: spheroid assay_MOLM14 IC50
Procedure: (§1) The anti-proliferative effect of menin/MLL protein/protein interaction inhibitor test compounds was assessed in human leukemia cell lines. The cell line MOLM14 harbors a MLL translocation and expresses the MLL fusion protein MLL-AF9, respectively, as well as the wildtype protein from the second allele. OCI-AML3 cells that carry the NPM1c gene mutation were also tested. […] KO-52 was used as a control cell line containing two MLL (KMT2A) wildtype alleles in order to exclude compounds that display general cytotoxic effects.
(§2) MOLM14 cells were cultured in RPMI-1640 (Sigma Aldrich) supplemented with 10% heat-inactivated fetal bovine serum (HyClone), 2 mM L-glutamine (Sigma Aldrich) and 50 μg/ml gentamycin (Gibco). […]
(§3) In order to assess the anti-proliferative effects, 200 MOLM14 cells, 200 OCI-AML3 cells or 300 KO-52 cells were seeded in 200 μl media per well in 96-well round bottom, ultra-low attachment plates (Costar, catalogue number 7007). […] Spheroid like growth was measured in real-time by live-cell imaging (IncuCyteZOOM, Essenbio, 4× objective) acquiring images at day 8. Confluence (%) as a measure of spheroid size was determined using an integrated analysis tool.
(§4) In order to determine the effect of the test compounds over time, the confluence in each well as a measure of spheroid size, was calculated. […]
(§5) Absolute IC50 values were calculated as percent change in confluence as follows: […]

OCI-AML3 cells = assay: Proliferation assay (spheroid assay) OCI-AML3; assay type: cell-based, human; conditions: 8 days, NPM1c mutated cell line; read-out: spheroid assay_OCI-AML3 IC50
Procedure: as §1, §2, §3, §4, §5

KO-52 cells = assay: Proliferation assay (spheroid assay) KO-52 control cell line; assay type: cell-based, human; conditions: 8 days, MLL wildtype control cell line; read-out: spheroid assay_KO-52 IC50
Procedure: as §1, §2, §3, §4, §5

[2] = Dynamic vapor sorption (DVS) moisture sorption analysis; assay type: physicochemical; conditions: after 2 cycles of vapor adsorption/desorption
Procedure: The moisture sorption analysis (DVS) was performed using a ProUmid GmbH & Co. KG Vsorp Enhanced dynamic vapor sorption apparatus. The moisture profile was evaluated by monitoring vapor adsorption/desorption over the range of 0 to 90% relative humidity at 25° C. The sample weight equilibrium criteria were set at ≤0.010% change in 45 min with minimum and maximum time of acclimation at 50 min and 120 min, respectively. The moisture profile consisted of 2 cycles of vapor adsorption/desorption.

Menin/MLL (terbium chelate-labeled menin, FITC-MBM1 peptide), sequence (O00255 other isoform, or with tags, fused parts or gaps): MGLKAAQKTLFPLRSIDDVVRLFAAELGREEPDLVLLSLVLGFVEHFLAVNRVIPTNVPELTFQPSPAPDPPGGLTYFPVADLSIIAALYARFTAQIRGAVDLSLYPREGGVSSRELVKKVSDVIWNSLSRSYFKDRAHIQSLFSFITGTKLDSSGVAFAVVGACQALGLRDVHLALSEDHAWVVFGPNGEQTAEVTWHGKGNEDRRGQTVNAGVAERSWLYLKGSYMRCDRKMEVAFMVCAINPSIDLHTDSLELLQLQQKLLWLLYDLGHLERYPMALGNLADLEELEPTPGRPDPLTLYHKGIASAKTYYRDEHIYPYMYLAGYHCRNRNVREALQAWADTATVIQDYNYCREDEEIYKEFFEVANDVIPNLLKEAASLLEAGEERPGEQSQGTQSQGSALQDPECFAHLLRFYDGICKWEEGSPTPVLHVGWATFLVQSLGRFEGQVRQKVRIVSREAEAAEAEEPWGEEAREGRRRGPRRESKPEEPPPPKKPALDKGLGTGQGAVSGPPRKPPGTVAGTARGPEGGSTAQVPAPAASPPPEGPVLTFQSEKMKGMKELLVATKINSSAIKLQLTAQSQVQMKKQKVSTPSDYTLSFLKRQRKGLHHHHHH

IC50 [1]: 0.024 nM
IC50 (MEIS1 mRNA expression): 11 nM
IC50 (MOLM14 cells): 13 nM
IC50 (OCI-AML3 cells): 70 nM
Compound: CC(=O)N1CCC(CN2CC[C@@H](Cc3cn(-c4ccc(F)cc4C(=O)N(C)C(C)C)c4cncc(C)c34)C2)CC1 [Compound 51a]
IC50 (KO-52 cells): 1200 nM
solid-state form stability after DVS test (XRPD) [2]: No indication of a solid-state form change was observed

Reference: patent US20250197392A1, “CRYSTALLINE FORMS OF AN INHIBITOR OF THE MENIN/MLL INTERACTION” (JANSSEN PHARMACEUTICA NV, priority 2022, published 2025)
